Experimental data taken from patent US10940240B2, “Catheter locking solution and catheter locking therapy” (Medical Components, Inc., priority 2016, dated 2021).

Tested on: Staphylococcus aureus CIP 65.25 (methicillin resistant)
Assay: anti-biofilm assay on 24 h biofilms formed on Chronoflex catheter segments in microfermentors
Format: cell-based
Details: for effect on bacterial survival / lysis of bacterial cells: biofilm exposed 24 hours at 37° C., complete lysis = under the threshold of detection (10 CFU per KT segment); for number of viable cells on catheter segment (Moyenne): biofilm on catheter segment exposed to solution for 24 hours at 37° C., triplicate, limit of detection 10 CFU per KT segment; for effect in lysing the bacteria compared with 15 v/v % EtOH: EtOH alone
Protocol: For example, preliminary assay testing of anti-biofilm properties of a TCEA solution comprising a 10.0 w/v % concentration of trisodium citrate at and 15.0, 20.0 and 25.0 v/v % concentrations of ethyl alcohol (i.e., ethanol or EtOH) were conducted. The testing was performed in the following manner.
Ethanol 15%, 20% and 25% (v/v)+trisodium citrate 10% (w/v)
Controls: Ethanol 15%, 20% and 25% • Trisodium citrate 10% • Water for injection The material tested were segments, each 1 centimeter long, of sterile catheters Chronoflex (“catheter segments”). The strains used were Staphylococcus aureus CIP 65.25 (methicillin resistant).
Biofilms were formed in aerated microfermentors with catheter segments fixed onto an internal removable glass slide of the microfermentors. Strains from frozen stocks were cultivated in Trypticase Soja broth (“TSB”). An inoculum of 10^8 cells was used to inoculate microfermentors containing the catheter segments. A continuous flow of 54 milliliters per hour (“mL/h”) of TSB and constant aeration with sterile pressed air at 0.3 bar were used to obtain continuous flow-through culture conditions. After 24 hours of incubation, the catheter segments were removed from the incubator and separated from their respective microfermentor device. Each catheter segment was then carefully rinsed in 1 mL of saline.
To determine the number of viable cells within the biofilms formed onto the catheter segments before being subjected to or made to be in contact with the test solutions (i.e., before treatment), the biofilms (triplicate for each strain) were resuspended in TSB by sonication and vortexing. Serial dilutions of the resulting suspensions were performed and plated onto appropriate agar plates to determine the number of viable cells after overnight incubation at 37 degrees Celsius (“° C.”).
In parallel, catheter segments to be tested were placed in a tube containing 1 mL of the different lock solutions: (i) ethanol at 15%, 20% and 25% (vol/vol); (ii) trisodium citrate at 10% (vol/vol); (iii) ethanol/tri sodium citrate mixing solutions (15%-10%, 20%-10%, 25%-10% (vol/vol)), wherein ethanol concentrations were 15%, 20%, and 25%, and trisodium citrate concentration was 10%; and (iv) water for injection as control. For every organism, the experiments were repeated in triplicate, and during each treatment assay catheter segments were exposed to the different solutions for 24 hours at 37° C. Subsequently, the catheter segments were removed, rinsed once with saline, and the number of adherent viable microorganisms determined, as described above. In FIG. 1, the number of viable cells is expressed as Colony Forming Unit (“CFU”), and the bacteria count is expressed as a decimal logarithm, log 10. (Note: FIG. 1 expresses the CFU as UFC, which is an acronym for unite formant colonie and is the same unit of measure as CFU.). The limit of detection in the experimental conditions is 10 CFU per KT segment, thus the threshold of detection is 10 CFU per KT segment. KT is a catheter sample used during testing, and its length can range from 3 to 5 centimeters. A KT can be a specimen of a catheter that have been cut (1 meter long usually) and placed into a microfermentor apparatus so that biofilms are formed at a surface of the catheter. Once the biofilm is formed and place into contact with the catheter lock solution to be tested, a measured the number of bacterial viable cells still present at the surface of the catheter is obtained. The limit of detection is 10 Colony Forming Units per specimen of catheter.
During the study, the disclosed catheter locking solution had been tested to ascertain whether it can eradication viable bacterial and prevent regrowth of biofilm. […] The catheter locking solution had been tested against Staphylococcus aureus (methicillin resistant).

Molecule	effect on bacterial survival / lysis of bacterial cells	number of viable cells on catheter segment (Moyenne) [CFU]	effect on bacterial survival / lysis of bacterial cells (listed as EtOH alone (at 15 v/v %))	effect on bacterial survival / lysis of bacterial cells (listed as EtOH alone, at 15 v/v % concentration)	effect on bacterial survival / lysis of bacterial cells (listed as Ethyl alcohol at a concentration of 15.0 v/v %)	bacterial cells after treatment (decreased from 1.00 E+07) (preliminary in vitro testing)	effect in lysing the bacteria compared with 15 v/v % EtOH
O=C([O-])CC(O)(CC(=O)[O-])C(=O)[O-].[Na+].[Na+].[Na+] [citrate 10% (m/v), trisodium citrate]	no effect on the bacterial survival	3.64E+06					
ethyl alcohol [EtOH 15% (v/v)]		2.12E+02	did not lyse all the bacterial cells	did not lyse all the bacterial cells	did not lyse all bacterial cells	1.00E+02	
ethyl alcohol [EtOH 20% (v/v)]		1.00E+01					significantly greater effect in lysing the bacteria
ethyl alcohol [EtOH 25% (v/v)]		1.00E+01					significantly greater effect in lysing the bacteria
